The record followed here is patent publication US20240398805A1, “QUINAZOLINE DERIVED COMPOUNDS AS EGFR INHIBITORS AND THEIR USES THEREOF” (ACCUTAR BIOTECHNOLOGY INC., priority 2021, published 2024).

One may read the GI50 as the concentration at which growth is held to half of that of the control. A higher GI50 goes with less potent growth inhibition.

Holding throughout (format): cell-based
The subject of assay [1] is HCC827-SVD cells (human EGFR exon 20 insertion mutant D770_N771 insSVD). Description: Cell growth inhibition (CellTiter-Glo, 3 days) in HCC827-SVD. The conditions noted are these: 72 h, 3 days after administration. A digest of the protocol:
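HCC827 cells carrying lentiviral codon-optimized EGFR D770_N771 insSVD, with endogenous EGFR knocked out by CRISPR (single clone), seeded at 5000 cells/well in RPMI with 10% FBS. Viability read by CellTiter-Glo luminescence.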

Assay [2] has as its system HCC827 cells. Kind of assay: Cell growth inhibition (CellTiter-Glo, 3 days) in HCC827. The conditions noted are these: Homo sapiens, 72 h, 3 days after administration. Summed up:
(§1)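 HCC827 cells in RPMI/10% FBS and A431 cells in DMEM/10% FBS were seeded at 5000 cells/well and left overnight. Compound was then added over a concentration range for 3 days of incubation, and viability was read by CellTiter-Glo luminescence.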
For orientation: Cellular ATP, detected with luciferase, serves as a proxy for viable cell number.

Assay [3] deals with HCC827-YVMA cells (human ERBB2 exon20 insertion mutant A775_G776ins YVMA). Kind of assay: Cell growth inhibition (CellTiter-Glo, 3 days) in HCC827-YVMA. The conditions noted are these: 72 h, 3 days after administration. A digest of the protocol:
(§2)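 Growth inhibition used a CellTiter-Glo luminescence read-out after 3 days of compound exposure at various concentrations. Cells were plated the day before at 5000/well in RPMI plus 10% FBS. The lines are HCC827 transduced by lentivirus with codon-optimized EGFR ASV or ERBB2 YVMA exon 20 insertions.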

Assay [4] relates to HCC827-ASV cells (human EGFR exon 20 insertion mutant A769_D770insASV). Kind of assay: Cell growth inhibition (CellTiter-Glo, 3 days) in HCC827-ASV. The conditions noted are these: 72 h, 3 days after administration. A digest of the protocol:
as §2

The test system of assay [5] is A431 cells. Description: Cell growth inhibition (CellTiter-Glo, 3 days) in A431. The conditions noted are these: Homo sapiens, A-431, 72 h, 3 days after administration. A digest of the protocol:
as §1

With `C=CC(=O)N1CCC(Nc2cc3c(Nc4ccc(Oc5ccnc(N6CC(C(N)=O)C6)c5)cc4F)ncnc3cc2OC)CC1` [Example 144, 1-(4-(4-((6-((1-acryloylpiperidin-4-yl)amino)-7-methoxyquinazolin-4-yl)amino)-3-fluorophenoxy)pyridin-2-yl)azetidine-3-carboxamide], the GI50 in assay [1] is 600 to 1000 nM; in assay [2], not below 1000 nM; in assay [3], not below 1000 nM; in assay [4], 600 to 1000 nM; in assay [5], not below 1000 nM.
Regarding `C=CC(=O)N1CCC(Nc2cc3c(Nc4ccc(Oc5ccnc(-c6ccc(C)cc6)c5)cc4F)ncnc3cc2OC)CC1` [Example 235, 1-(4-((4-((2-fluoro-4-((2-(p-tolyl)pyridin-4-yl)oxy)phenyl)amino)-7-methoxyquinazolin-6-yl)amino)piperidin-1-yl)prop-2-en-1-one], the concentration for 50% growth inhibition (GI50) is 30 to 60 nM in assay [1]; 60 to 100 nM in assay [2]; 60 to 100 nM in assay [3]; 30 to 60 nM in assay [4]; 600 to 1000 nM in assay [5].
Take `C=CC(=O)N1CCC(Nc2cc3c(Nc4ccc(Oc5nc(-c6ccc(OC)nc6)cs5)cc4F)ncnc3cc2OC)CC1` [Example 55, 1-(4-((4-((2-fluoro-4-((4-(6-methoxypyridin-3-yl)thiazol-2-yl)oxy)phenyl)amino)-7-methoxyquinazolin-6-yl)amino)piperidin-1-yl)prop-2-en-1-one]: the GI50 in assay [1] is less than 30 nM; in assay [2], less than 30 nM; in assay [3] it was less than 30 nM; in assay [4], less than 30 nM; in assay [5] it was 100 to 300 nM.
Take `C=CC(=O)N1CCC(Nc2cc3c(Nc4ccc(Oc5nc(-c6cnc(C7CC7)nc6)cs5)cc4F)ncnc3cc2OC)CC1` [Compound 51, 1-(4-((4-((4-((4-(2-cyclopropylpyrimidin-5-yl)thiazol-2-yl)oxy)-2-fluorophenyl)amino)-7-methoxyquinazolin-6-yl)amino)piperidin-1-yl)prop-2-en-1-one]: the GI50 in assay [1] is 30 to 60 nM; in assay [2] it was 30 to 60 nM; in assay [3], 30 to 60 nM; in assay [4] it was 30 to 60 nM; in assay [5] it was 100 to 300 nM.
For the compound `C=CC(=O)N1CCC(Nc2cc3c(Nc4ccc(Oc5ccnc(-c6nc(C)ns6)c5)cc4F)ncnc3cc2OC)CC1` [Example 192, 1-(4-((4-((2-fluoro-4-((2-(3-methyl-1,2,4-thiadiazol-5-yl)pyridin-4-yl)oxy)phenyl)amino)-7-methoxyquinazolin-6-yl)amino)piperidin-1-yl)prop-2-en-1-one], the GI50 in assay [1] is less than 30 nM; in assay [2], 60 to 100 nM; in assay [3], less than 30 nM; in assay [4], less than 30 nM; in assay [5] it was 100 to 300 nM.
Take `C=CC(=O)N1CCC(Nc2cc3c(Nc4ccc(Oc5ccn(-c6ccc(C)nc6)n5)cc4F)ncnc3cc2OC)CC1` [Compound 3, 1-(4-((4-((2-fluoro-4-((1-(6-methylpyridin-3-yl)-1H-pyrazol-3-yl)oxy)phenyl)amino)-7-methoxyquinazolin-6-yl)amino)piperidin-1-yl)prop-2-en-1-one]: the GI50 in assay [1] was 60 to 100 nM; in assay [2], 300 to 600 nM; in assay [3] it was 30 to 60 nM; in assay [4] it was 30 to 60 nM; in assay [5], 100 to 300 nM.
For `C=CC(=O)N1CCC(Nc2cc3c(Nc4ccc(Oc5ccnc(N6CC[C@@H](F)C6)c5)cc4F)ncnc3cc2OC)CC1` [Example 195, (R)-1-(4-((4-((2-fluoro-4-((2-(3-fluoropyrrolidin-1-yl)pyridin-4-yl)oxy)phenyl)amino)-7-methoxyquinazolin-6-yl)amino)piperidin-1-yl)prop-2-en-1-one], the GI50 is less than 30 nM in assay [1]; 100 to 300 nM in assay [2]; less than 30 nM in assay [3]; less than 30 nM in assay [4]; 600 to 1000 nM in assay [5].
Consider `C=CC(=O)N1CCC(Nc2cc3c(Nc4ccc(Oc5ccnc(C(=O)NC(C)(C)C)c5)cc4F)ncnc3cc2OC)CC1` [Compound 167, 4-(4-((6-((1-acryloylpiperidin-4-yl)amino)-7-methoxyquinazolin-4-yl)amino)-3-fluorophenoxy)-N-(tert-butyl)picolinamide], for which the GI50 is 60 to 100 nM in assay [1]; less than 30 nM in assay [2]; 60 to 100 nM in assay [3]; 30 to 60 nM in assay [4]; 600 to 1000 nM in assay [5].
Take `C=CC(=O)N1CCC(Nc2cc3c(Nc4ccc(Oc5ccn(-c6cc(F)c(C)cn6)n5)cc4F)ncnc3cc2OC)CC1` [Compound 15, 1-(4-((4-((2-fluoro-4-((1-(4-fluoro-5-methylpyridin-2-yl)-1H-pyrazol-3-yl)oxy)phenyl)amino)-7-methoxyquinazolin-6-yl)amino)piperidin-1-yl)prop-2-en-1-one]: the GI50 in assay [1] is 100 to 300 nM; in assay [2], 100 to 300 nM; in assay [3] it was 60 to 100 nM; in assay [4], 100 to 300 nM; in assay [5] it was 100 to 300 nM.
As for `C=CC(=O)N1CCC(Nc2cc3c(Nc4ccc(Oc5ccnc(N6C[C@H](F)[C@@H](F)C6)c5)cc4F)ncnc3cc2OC)CC1` [Example 264, 1-(4-((4-((4-((2-((3S,4S)-3,4-difluoropyrrolidin-1-yl)pyridin-4-yl)oxy)-2-fluorophenyl)amino)-7-methoxyquinazolin-6-yl)amino)piperidin-1-yl)prop-2-en-1-one], the GI50 in assay [1] was less than 30 nM; in assay [2], 60 to 100 nM; in assay [3], less than 30 nM; in assay [4], less than 30 nM; in assay [5], 600 to 1000 nM.
With `C=CC(=O)N1CCC(Nc2cc3c(Nc4ccc(Oc5ccnc(N6CCO[C@@H](C)C6)c5)cc4F)ncnc3cc2OC)CC1` [Example 132, (S)-1-(4-((4-((2-fluoro-4-((2-(2-methylmorpholino)pyridin-4-yl)oxy)phenyl)amino)-7-methoxyquinazolin-6-yl)amino)piperidin-1-yl)prop-2-en-1-one], the GI50 in assay [1] was less than 30 nM; in assay [2] it was 100 to 300 nM; in assay [3], less than 30 nM; in assay [4], less than 30 nM; in assay [5], 600 to 1000 nM.
With `C=CC(=O)N1CCC(Nc2cc3c(Nc4ccc(Oc5ccc(N6C[C@@H](C)O[C@@H](C)C6)cn5)cc4F)ncnc3cc2OC)CC1` [Example 111, 1-(4-((4-((4-((5-((2R,6S)-2,6-dimethylmorpholino)pyridin-2-yl)oxy)-2-fluorophenyl)amino)-7-methoxyquinazolin-6-yl)amino)piperidin-1-yl)prop-2-en-1-one], the GI50 in assay [1] is 300 to 600 nM; in assay [2], 30 to 60 nM; in assay [3], 300 to 600 nM; in assay [4], 300 to 600 nM; in assay [5], 600 to 1000 nM.
For `C=CC(=O)N1CCC(Nc2cc3c(Nc4ccc(Oc5ccnc(N6C[C@H]7COC[C@H]7C6)c5)cc4F)ncnc3cc2OC)CC1` [Example 190, 1-(4-((4-((2-fluoro-4-((2-((3aR,6aS)-tetrahydro-1H-furo[3,4-c]pyrrol-5(3H)-yl)pyridin-4-yl)oxy)phenyl)amino)-7-methoxyquinazolin-6-yl)amino)piperidin-1-yl)prop-2-en-1-one], the concentration for 50% growth inhibition (GI50) in assay [1] was less than 30 nM; in assay [2], 30 to 60 nM; in assay [3], less than 30 nM; in assay [4], less than 30 nM; in assay [5], 300 to 600 nM.
For the compound `C=CC(=O)N1CCC(Nc2cc3c(Nc4ccc(Oc5ccnc(N6CC7CN(C)CC7C6)c5)cc4F)ncnc3cc2OC)CC1` (centres unmarked) [Example 240, 1-(4-((4-((2-fluoro-4-((2-(5-methylhexahydropyrrolo[3,4-c]pyrrol-2(1H)-yl)pyridin-4-yl)oxy)phenyl)amino)-7-methoxyquinazolin-6-yl)amino)piperidin-1-yl)prop-2-en-1-one], the GI50 is 300 to 600 nM in assay [1]; 600 to 1000 nM in assay [2]; 300 to 600 nM in assay [3]; 300 to 600 nM in assay [4]; not below 1000 nM in assay [5].
Take `C=CC(=O)N1CCC(Nc2cc3c(Nc4ccc(Oc5ccnc(-c6cncs6)c5)cc4F)ncnc3cc2OC)CC1` [Example 42, 1-(4-((4-((2-fluoro-4-((2-(thiazol-5-yl)pyridin-4-yl)oxy)phenyl)amino)-7-methoxyquinazolin-6-yl)amino)piperidin-1-yl)prop-2-en-1-one]: the GI50 in assay [1] was 600 to 1000 nM; in assay [2], not below 1000 nM; in assay [3], 600 to 1000 nM; in assay [4], 300 to 600 nM; in assay [5] it was not below 1000 nM.
Take `C=CC(=O)N1CCC(Oc2cc3c(Nc4ccc(Oc5cc(N6C[C@@H](C)O[C@@H](C)C6)ncc5Cl)cc4F)ncnc3cc2OC)CC1` [Example 166, 1-(4-((4-((4-((5-chloro-2-((2R,6S)-2,6-dimethylmorpholino)pyridin-4-yl)oxy)-2-fluorophenyl)amino)-7-methoxyquinazolin-6-yl)oxy)piperidin-1-yl)prop-2-en-1-one]: the GI50 was not below 1000 nM in assay [1]; 300 to 600 nM in assay [2]; 300 to 600 nM in assay [3]; 100 to 300 nM in assay [4]; not below 1000 nM in assay [5].
